Where a name gives a salt, the structure may show the parent alone. Read-outs that look alike come from different tables or passages of the source.
What was measured:
[1] = 2.5 mg once, cited from earlier work
[2] = 7.5 to 20 mg daily by mouth; cited from earlier work
[3] = in vivo; cited from earlier work
[4] = tested on: 3-hydroxy-3-methylglutaryl coenzyme A (HMG-CoA) reductase; conditions: cited from earlier work
[5] = in vivo; cited from earlier work; remark: listed apart in the source
[6] = for Cholesterol / HDL-Chol / Plasma Glucose / Plasma Insulin / Reproperitoneal Fat / Triglyceride: 18 days after last treatment; for Food Consumption: P 4 mg/kg or M 500 μg/kg oral, two weeks
Protocol: Forty male older Sprague-Dawley rats (6 months of age) were separated into 5 groups of 8 rats each. […] A control group (C) received peanut butter only daily at 0800 and 1800. Rat chow (Purina) was made available ad libitum. Treatment lasted two weeks. Blood samples were taken and retroperitoneal fat was dissected and weighed 18 days after the last day of treatment. This made it possible to assess long term effects of the treatment. […] All animals were fasted 6 hours prior to blood sampling and sacrifice.

[7] = 0.5 or 0.75 mg s.c., cited from earlier work
[8] = cited from earlier work
[9] = in vivo; cited from earlier work; remark: listed apart in the source
[10] = Timed administration of methyl scopolamine, long-term effects (Example 7); assay type: in vivo, Sprague-Dawley rat; conditions: for Retroperitoneal Fat: 0.5 mg/kg BW two weeks
Protocol: Methylscopolamine (MSC) (0.5 mg/kgBW) in 1 mL peanut butter was fed at light onset (AM) or at light offset (PM) to 9 Sprague-Dawley rats (30 weeks old) in each group daily for two weeks. Nine-other rats were fed only peanut butter. 18 days after the last treatment, the rats were sacrificed and the indices in Table 6 were measured.

[11] = 0.5 mg intramuscularly, cited from earlier work
[12] = 5 mg at 2230 h; cited from earlier work
[13] = in vivo; cited from earlier work; remark: listed apart in the source
isolated fat cells = conditions: in vitro; cited from earlier work
[14] = tested on: adipose tissue cyclic AMP phosphodiesterase; conditions: cited from earlier work
[15] = cited from earlier work; remark: listed apart in the source
[16] = 3.0 and 6.0 μg/kg intramuscularly at 11:00 pm; cited from earlier work
[17] = dosed at 0800, 18 days post-treatment
[18] = AM, 18 days after last treatment
[19] = PM, 18 days after last treatment
[20] = light-offset vs light-onset administration

CC(C)C[C@H]1C(=O)N2CCC[C@H]2[C@]2(O)O[C@](NC(=O)[C@@H]3C=C4c5cccc6[nH]c(Br)c(c56)C[C@H]4N(C)C3)(C(C)C)C(=O)N12 [bromocriptine]
plasma glucose concentration ([1]; 2 h prior to glucose challenge): decrease
Plasma Insulin [1]: decrease with drug administration was significant
plasma prolactin levels [1]: decreased markedly
patients having aggravation [2]: 4
patients having improvement in glucose regulation [2]: six
patients showing no significant change [2]: 14

CCOC(=O)C(C)(C)Oc1ccc(Cl)cc1 [clofibrate]
effectiveness [3]: varies from subject to subject
side effects [3]: nephrotic syndromes, myalgia, nausea and abdominal pain

CC[C@H](C)C(=O)O[C@H]1C[C@@H](C)C=C2C=C[C@H](C)[C@H](CC[C@@H]3C[C@@H](O)CC(=O)O3)[C@H]21 [lovastatin]
HMG-CoA reductase inhibition [4]: selectively inhibits
increase in HDL concentrations [5]: 5-10%
total cholesterol [5]: specifically reduces total cholesterol

C[N+]1(C)[C@@H]2C[C@@H](OC(=O)[C@H](CO)c3ccccc3)C[C@H]1[C@@H]1O[C@@H]12 [methyl scopolamine]
food consumption, change in words ([6]; dosed at 0800): significant increase
insulin resistance (plasma insulin and glucose), in words [6, 17]: improved insulin resistance
plasma lipid indices, change in words [6, 17]: significantly reduced retroperitoneal body fat, plasma lipid indices
retroperitoneal body fat, change in words [6, 17]: significantly reduced retroperitoneal body fat
Cholesterol ([6]; dosed at 0800): 96.8 ± 1.8 mg/dL
HDL-Chol ([6]; dosed at 0800): 43.9 ± 2.7 mg/dL
Plasma Glucose ([6]; dosed at 0800): 158 ± 4
Plasma Insulin ([6]; dosed at 0800): 118 ± 7
Reproperitoneal Fat ([6]; dosed at 0800): 2.18 ± 0.31 g
Triglyceride ([6]; dosed at 0800): 90.0 ± 3.1 mg/dL
Food Consumption ([6]; dosed at 0800): 17.5 ± 1.3 g/day
Cholesterol ([6]; dosed at 1800): 133.6 ± 1.9 mg/dL
HDL-Chol ([6]; dosed at 1800): 61.0 ± 1.9 mg/dL
Plasma Glucose ([6]; dosed at 1800): 148 ± 7
Plasma Insulin ([6]; dosed at 1800): 171 ± 14
Reproperitoneal Fat ([6]; dosed at 1800): 2.61 ± 0.19 g
Triglyceride ([6]; dosed at 1800): 188.0 ± 5.7 mg/dL
Food Consumption ([6]; dosed at 1800): 14.9 ± 1.0 g/day
HDL-cholesterol, change in words ([6]; only with administration at 1800): increase
elevated AVP levels ([7]; after physostigmine): decreased
elevated cortisol levels ([7]; after physostigmine): decreased
elevated prolactin levels ([7]; after physostigmine): decreased
growth hormone secretion [7]: inhibited
tolerability ([8]; chronic use of 5 mg): not particularly well tolerated by most patients
dawn phenomenon ([8]; given at bedtime): attenuated
sleep induced growth hormone secretion ([8]; given at bedtime): suppressed
half-life [9]: 4 to 6 h
Retroperitoneal Fat ([10]; AM (light onset), 18 days after last treatment): 2.78 ± 0.08 g
Cholesterol [10, 18]: 94.7 ± 4.9 mg/dL
Glucose [10, 18]: 151.8 ± 19.6 mg/dL
HDL Cholesterol [10, 18]: 32.5 ± 4.1 mg/dL
Insulin [10, 18]: 144.1 ± 5.9 μU/mL
Triglycerides [10, 18]: 197 ± 18 mg/dL
Retroperitoneal Fat ([10]; PM (light offset), 18 days after last treatment): 2.45 ± 0.07 g
Cholesterol [10, 19]: 94.1 ± 5.7 mg/dL
HDL Cholesterol [10, 19]: 45.2 ± 4.2 mg/dL
Insulin [10, 19]: 163.8 ± 2.7 μU/mL
Triglycerides [10, 19]: 106 ± 21 mg/dL
persistence after cessation of treatment ([10]; Table 6): long-term effect that persists after cessation of the treatment
glucose, change in words ([10]; light onset or offset): significantly reduced
insulin, change in words ([10]; light onset or offset): significantly reduced
retroperitoneal fat, change in words ([10]; light onset or offset): significantly reduced
cholesterol, change in words [10, 20]: significantly increased cholesterol
insulin, change in words [10, 20]: significantly reduced triglycerides and insulin
triglycerides, change in words [10, 20]: significantly reduced triglycerides
HDL, change in words ([10]; only at light offset): increased HDL
triglycerides, change in words ([10]; only at light offset): significantly reduced
overall and mean peak growth hormone levels during the night ([11]; 1/2 h before bedtime): dramatically reduced
insulin-induced hypoglycemia [11]: did not affect sleep patterns or insulin-induced hypoglycemia
prolactin levels during sleep [11]: did not affect prolactin levels during sleep
sleep patterns [11]: did not affect sleep patterns
dawn effect [12]: decrease
peak growth hormone concentrations after sleep [12]: marked inhibition
effect of physostigmine on plasma pituitary hormones (cortisol, prolactin, ACTH) [13]: inhibited

CN1CCN(CC(=O)N2c3ccccc3C(=O)Nc3cccnc32)CC1 [pirenzepine]
half-life [9]: about 11 hours

CN1[C@@H]2C[C@@H](OC(=O)[C@H](CO)c3ccccc3)C[C@H]1[C@@H]1O[C@@H]12 [scopolamine hydrobromide]
glycerol release from isolated fat cells (isolated fat cells): did not significantly affect
adipose tissue cyclic AMP phosphodiesterase activity [14]: nor inhibited

CN1[C@@H]2C[C@@H](OC(=O)[C@H](CO)c3ccccc3)C[C@H]1[C@@H]1O[C@@H]12 [scopolamine]
susceptibility to motion sickness ([15]; 0.01 mg/kg orally 2 h before rotation): significantly decreased
hormone concentrations (ACTH, cortisol, STH, prolactin) vs placebo ([15]; 0.01 mg/kg orally): identical
rapid eye movement latency [16]: significant dose-related delay

From patent US5712265A (The General Hospital Corporation, priority 1995, dated 1998)
